Legend:
Assay in all cases: KINOMEscan
Assay type in all cases: binding
Details in all cases: 1 μM of compound 4; read-out: POC
[1] = molecular target: T1, ABL1(M351T)-phosphorylated (Homo sapiens, UniProt P00519, M351T)
T1 construct: purchased Eurofins DiscoverX Corporation

[2] = molecular target: T2, ABL1(Q252H)-phosphorylated (Homo sapiens, UniProt P00519, Q252H)
T2 construct: purchased Eurofins DiscoverX Corporation

[3] = molecular target: AURKA (Homo sapiens, UniProt O14965)
[4] = molecular target: CLK1 (Homo sapiens, UniProt P49759)
[5] = molecular target: T3, EGFR(L747-S752del + P753S) (Homo sapiens, UniProt P00533, DEL747-752/P753S)
T3 construct: purchased Eurofins DiscoverX (KINOMEscan service)

[6] = molecular target: T4, EPHA6 (Homo sapiens, UniProt Q9UF33)
T4 construct: purchased Eurofins DiscoverX (KINOMEscan service)

[7] = molecular target: T5, ERK5 (Homo sapiens, UniProt Q13164)
T5 construct: purchased Eurofins DiscoverX Corporation

[8] = molecular target: T6, FGFR4 (Homo sapiens, UniProt P22455)
T6 construct: purchased Eurofins DiscoverX Corporation
T6 sequence (P22455 22-802): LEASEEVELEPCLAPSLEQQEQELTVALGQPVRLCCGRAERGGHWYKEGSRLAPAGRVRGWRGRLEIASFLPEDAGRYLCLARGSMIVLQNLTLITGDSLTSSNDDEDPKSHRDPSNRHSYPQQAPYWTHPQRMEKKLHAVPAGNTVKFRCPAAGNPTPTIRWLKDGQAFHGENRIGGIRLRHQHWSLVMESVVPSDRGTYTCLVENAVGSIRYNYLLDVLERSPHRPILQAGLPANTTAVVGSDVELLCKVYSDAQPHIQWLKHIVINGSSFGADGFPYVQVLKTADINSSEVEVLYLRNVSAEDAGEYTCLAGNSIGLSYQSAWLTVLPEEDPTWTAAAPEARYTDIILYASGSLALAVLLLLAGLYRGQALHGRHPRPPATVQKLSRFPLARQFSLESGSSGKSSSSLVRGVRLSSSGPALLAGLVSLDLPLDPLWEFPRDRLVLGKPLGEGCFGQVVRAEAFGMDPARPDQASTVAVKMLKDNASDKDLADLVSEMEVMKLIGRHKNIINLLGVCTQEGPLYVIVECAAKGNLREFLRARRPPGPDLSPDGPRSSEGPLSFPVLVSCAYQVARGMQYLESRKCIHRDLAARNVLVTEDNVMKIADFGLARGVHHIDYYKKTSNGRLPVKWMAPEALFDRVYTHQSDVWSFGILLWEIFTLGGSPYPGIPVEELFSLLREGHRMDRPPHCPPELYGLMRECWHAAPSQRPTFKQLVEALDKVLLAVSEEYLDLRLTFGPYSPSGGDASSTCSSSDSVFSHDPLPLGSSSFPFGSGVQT

[9] = molecular target: T7, HPK1 (Homo sapiens, UniProt Q92918)
T7 construct: purchased Eurofins DiscoverX Corporation

[10] = molecular target: INSRR (Homo sapiens, UniProt P14616)
[11] = molecular target: IRAK1 (Homo sapiens, UniProt P51617)
[12] = molecular target: KIT (Homo sapiens, UniProt P10721)
Sequence of KIT (P10721 26-976): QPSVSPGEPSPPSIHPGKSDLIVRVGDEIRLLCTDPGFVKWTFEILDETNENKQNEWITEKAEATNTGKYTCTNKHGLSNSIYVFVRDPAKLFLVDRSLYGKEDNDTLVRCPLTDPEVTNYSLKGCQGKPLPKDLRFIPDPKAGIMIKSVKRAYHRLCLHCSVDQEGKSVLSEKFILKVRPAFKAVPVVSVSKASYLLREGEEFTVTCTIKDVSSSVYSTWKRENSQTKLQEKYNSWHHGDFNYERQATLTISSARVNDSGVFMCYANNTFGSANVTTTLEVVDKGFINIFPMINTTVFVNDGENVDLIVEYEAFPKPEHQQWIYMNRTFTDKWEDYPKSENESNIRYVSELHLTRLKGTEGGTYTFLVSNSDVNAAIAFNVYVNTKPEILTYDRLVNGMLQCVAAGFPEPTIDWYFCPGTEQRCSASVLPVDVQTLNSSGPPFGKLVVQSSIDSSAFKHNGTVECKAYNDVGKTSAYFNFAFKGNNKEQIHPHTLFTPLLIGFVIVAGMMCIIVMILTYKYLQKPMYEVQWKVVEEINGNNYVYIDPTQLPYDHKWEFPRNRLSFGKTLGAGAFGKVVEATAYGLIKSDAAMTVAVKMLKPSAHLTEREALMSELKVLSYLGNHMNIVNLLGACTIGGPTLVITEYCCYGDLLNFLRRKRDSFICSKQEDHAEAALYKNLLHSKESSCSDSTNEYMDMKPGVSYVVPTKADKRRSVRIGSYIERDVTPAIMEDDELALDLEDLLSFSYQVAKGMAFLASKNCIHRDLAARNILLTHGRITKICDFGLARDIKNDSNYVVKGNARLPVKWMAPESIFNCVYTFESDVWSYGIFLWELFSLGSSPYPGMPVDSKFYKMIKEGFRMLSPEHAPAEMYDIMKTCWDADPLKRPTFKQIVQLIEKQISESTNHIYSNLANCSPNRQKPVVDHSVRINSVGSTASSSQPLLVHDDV

[13] = molecular target: MAP3K1 (Homo sapiens, UniProt Q13233)
[14] = molecular target: MERTK (Homo sapiens, UniProt Q12866)
[15] = molecular target: MINK (Homo sapiens, UniProt Q8N4C8)
[16] = molecular target: MST2 (Homo sapiens, UniProt Q13188)
[17] = molecular target: MTOR (Homo sapiens, UniProt P42345)
[18] = molecular target: MYLK2 (Homo sapiens, UniProt Q9H1R3)
Sequence of MYLK2 (Q9H1R3 whole entry): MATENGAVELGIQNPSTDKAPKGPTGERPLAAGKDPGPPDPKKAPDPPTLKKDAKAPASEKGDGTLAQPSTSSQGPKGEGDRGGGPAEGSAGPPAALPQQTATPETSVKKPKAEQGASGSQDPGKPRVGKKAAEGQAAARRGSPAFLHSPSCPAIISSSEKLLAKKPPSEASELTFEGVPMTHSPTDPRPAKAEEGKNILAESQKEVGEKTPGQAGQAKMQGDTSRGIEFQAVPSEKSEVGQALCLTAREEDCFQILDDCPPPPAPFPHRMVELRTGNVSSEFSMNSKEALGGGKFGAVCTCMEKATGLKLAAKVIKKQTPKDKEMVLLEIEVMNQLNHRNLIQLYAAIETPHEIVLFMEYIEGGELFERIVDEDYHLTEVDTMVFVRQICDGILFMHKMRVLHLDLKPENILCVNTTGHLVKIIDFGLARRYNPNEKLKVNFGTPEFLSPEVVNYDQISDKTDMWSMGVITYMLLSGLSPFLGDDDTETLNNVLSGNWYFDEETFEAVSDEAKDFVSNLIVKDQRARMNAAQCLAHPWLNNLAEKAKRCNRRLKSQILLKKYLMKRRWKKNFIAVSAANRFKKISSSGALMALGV

[19] = molecular target: NEK2 (Homo sapiens, UniProt P51955)
[20] = molecular target: T8, NLK (Homo sapiens, UniProt Q9UBE8)
T8 construct: purchased Eurofins DiscoverX Corporation (KINOMEscan)

[21] = molecular target: T9, p38-gamma (Homo sapiens, UniProt P53778)
T9 construct: purchased Eurofins DiscoverX Corporation (KINOMEscan)

[22] = molecular target: T10, PAK1 (Homo sapiens, UniProt Q13153)
T10 construct: purchased Eurofins DiscoverX Corporation (KINOMEscan)

[23] = molecular target: PIK3CA(C420R) (Homo sapiens, UniProt P42336, C420R)
[24] = molecular target: PKNB(M. tuberculosis) (Mycobacterium tuberculosis, UniProt P9WI81)
[25] = molecular target: PLK3 (Homo sapiens, UniProt Q9H4B4)
Sequence of PLK3 (Q9H4B4 whole entry): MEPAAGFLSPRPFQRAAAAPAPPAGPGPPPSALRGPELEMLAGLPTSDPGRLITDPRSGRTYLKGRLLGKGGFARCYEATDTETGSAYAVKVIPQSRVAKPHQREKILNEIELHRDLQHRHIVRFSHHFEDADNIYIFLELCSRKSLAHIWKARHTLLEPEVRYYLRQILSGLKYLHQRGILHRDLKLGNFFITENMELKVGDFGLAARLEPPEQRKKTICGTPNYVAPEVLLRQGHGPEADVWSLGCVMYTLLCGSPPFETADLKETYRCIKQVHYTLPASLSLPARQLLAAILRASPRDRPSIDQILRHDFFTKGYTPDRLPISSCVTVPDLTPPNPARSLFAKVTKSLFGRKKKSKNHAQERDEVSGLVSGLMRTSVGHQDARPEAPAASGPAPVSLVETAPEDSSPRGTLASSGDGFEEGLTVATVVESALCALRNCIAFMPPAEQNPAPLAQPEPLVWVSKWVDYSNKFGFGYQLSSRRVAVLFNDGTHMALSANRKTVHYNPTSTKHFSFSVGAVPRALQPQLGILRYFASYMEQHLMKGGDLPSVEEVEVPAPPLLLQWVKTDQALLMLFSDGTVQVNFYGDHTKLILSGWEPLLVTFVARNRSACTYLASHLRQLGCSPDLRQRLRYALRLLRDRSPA

[26] = molecular target: PRKG1 (Homo sapiens, UniProt Q13976)
Sequence of PRKG1 (Q13976 whole entry): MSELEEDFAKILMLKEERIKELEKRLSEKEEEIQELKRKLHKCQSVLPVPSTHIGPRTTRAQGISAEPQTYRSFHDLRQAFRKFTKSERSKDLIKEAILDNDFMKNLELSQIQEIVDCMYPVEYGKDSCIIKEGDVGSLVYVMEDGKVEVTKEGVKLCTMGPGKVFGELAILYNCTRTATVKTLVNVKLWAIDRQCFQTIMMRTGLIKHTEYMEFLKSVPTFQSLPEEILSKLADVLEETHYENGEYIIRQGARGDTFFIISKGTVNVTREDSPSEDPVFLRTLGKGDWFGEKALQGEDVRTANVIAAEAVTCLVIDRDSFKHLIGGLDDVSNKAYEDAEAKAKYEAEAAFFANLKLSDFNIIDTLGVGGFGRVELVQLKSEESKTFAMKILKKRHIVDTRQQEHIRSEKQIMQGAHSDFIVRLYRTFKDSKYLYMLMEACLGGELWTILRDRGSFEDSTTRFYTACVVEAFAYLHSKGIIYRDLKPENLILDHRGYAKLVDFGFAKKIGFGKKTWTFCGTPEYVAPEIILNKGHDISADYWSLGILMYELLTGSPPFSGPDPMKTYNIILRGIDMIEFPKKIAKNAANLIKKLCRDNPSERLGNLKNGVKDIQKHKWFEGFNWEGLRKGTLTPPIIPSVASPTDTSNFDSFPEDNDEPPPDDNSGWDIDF

[27] = molecular target: T11, RIPK4 (Homo sapiens, UniProt P57078)
T11 construct: purchased Eurofins DiscoverX Corporation (KINOMEscan screening service)
T11 sequence (P57078 whole entry): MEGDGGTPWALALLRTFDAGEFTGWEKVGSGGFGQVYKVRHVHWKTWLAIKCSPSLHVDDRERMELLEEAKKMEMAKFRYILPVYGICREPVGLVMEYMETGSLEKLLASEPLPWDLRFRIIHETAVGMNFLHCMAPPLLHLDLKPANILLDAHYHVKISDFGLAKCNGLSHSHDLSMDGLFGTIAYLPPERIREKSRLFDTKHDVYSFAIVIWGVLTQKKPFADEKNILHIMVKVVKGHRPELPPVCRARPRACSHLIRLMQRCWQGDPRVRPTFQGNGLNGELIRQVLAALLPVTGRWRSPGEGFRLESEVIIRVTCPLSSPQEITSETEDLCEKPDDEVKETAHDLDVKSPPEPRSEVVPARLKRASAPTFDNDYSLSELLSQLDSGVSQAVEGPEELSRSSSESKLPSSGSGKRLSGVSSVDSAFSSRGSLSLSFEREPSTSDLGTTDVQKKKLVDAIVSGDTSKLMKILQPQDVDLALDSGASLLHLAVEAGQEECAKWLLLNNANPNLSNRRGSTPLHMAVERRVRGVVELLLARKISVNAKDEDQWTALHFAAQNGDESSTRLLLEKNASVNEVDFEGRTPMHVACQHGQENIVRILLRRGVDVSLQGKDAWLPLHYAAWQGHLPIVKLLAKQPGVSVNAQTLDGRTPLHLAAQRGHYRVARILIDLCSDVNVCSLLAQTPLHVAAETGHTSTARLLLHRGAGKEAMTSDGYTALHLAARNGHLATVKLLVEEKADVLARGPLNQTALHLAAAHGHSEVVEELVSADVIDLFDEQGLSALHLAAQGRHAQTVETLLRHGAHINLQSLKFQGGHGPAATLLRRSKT

[28] = molecular target: T12, RPS6KA4(Kin.Dom.1-N-terminal) (Homo sapiens, UniProt O75676)
T12 construct: RPS6KA4(Kin.Dom.1-N-terminal); purchased Eurofins DiscoverX Corporation (KINOMEscan screening service)
T12 sequence (O75676 33-301 limits assumed): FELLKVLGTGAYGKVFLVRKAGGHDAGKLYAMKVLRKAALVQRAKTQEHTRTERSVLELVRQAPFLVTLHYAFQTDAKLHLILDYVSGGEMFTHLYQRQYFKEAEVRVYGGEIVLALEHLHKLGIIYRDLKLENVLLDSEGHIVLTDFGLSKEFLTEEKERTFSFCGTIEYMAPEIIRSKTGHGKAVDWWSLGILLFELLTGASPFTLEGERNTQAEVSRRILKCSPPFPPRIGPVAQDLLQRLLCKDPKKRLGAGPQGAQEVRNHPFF

[29] = molecular target: T13, RSK1(Kin.Dom.2-C-terminal) (Homo sapiens, UniProt Q15418)
T13 construct: RSK1(Kin.Dom.2-C-terminal); purchased Eurofins DiscoverX Corporation (KINOMEscan screening service)
T13 sequence (Q15418 418-675 limits assumed): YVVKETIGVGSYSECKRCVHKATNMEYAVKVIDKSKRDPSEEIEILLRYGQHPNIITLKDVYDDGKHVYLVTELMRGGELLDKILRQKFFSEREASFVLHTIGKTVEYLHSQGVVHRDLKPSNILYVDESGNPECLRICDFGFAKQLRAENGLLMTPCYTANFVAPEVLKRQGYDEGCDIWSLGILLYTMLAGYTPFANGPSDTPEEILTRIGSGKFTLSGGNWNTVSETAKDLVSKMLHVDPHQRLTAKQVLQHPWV

[30] = molecular target: T14, RSK4(Kin.Dom.2-C-terminal) (Homo sapiens, UniProt Q9UK32)
T14 construct: RSK4(Kin.Dom.2-C-terminal); purchased Eurofins DiscoverX (KINOMEscan service)

[31] = molecular target: T15, SGK3 (Homo sapiens, UniProt Q96BR1)
T15 construct: purchased Eurofins DiscoverX (KINOMEscan service)

[32] = molecular target: T16, STK16 (Homo sapiens, UniProt O75716)
T16 construct: purchased Eurofins DiscoverX (KINOMEscan service)

[33] = molecular target: T17, SYK (Homo sapiens, UniProt P43405)
T17 construct: purchased Eurofins DiscoverX Corporation

[34] = molecular target: T18, TLK1 (Homo sapiens, UniProt Q9UKI8)
T18 construct: purchased Eurofins DiscoverX Corporation

[35] = molecular target: T19, TNK2 (Homo sapiens, UniProt Q07912)
T19 construct: purchased Eurofins DiscoverX Corporation

[36] = molecular target: T20, TRKA (Homo sapiens, UniProt P04629)
T20 construct: purchased Eurofins DiscoverX Corporation

[37] = molecular target: T21, WNK4 (Homo sapiens, UniProt Q96J92)
T21 construct: purchased Eurofins DiscoverX

SMILES: C=CC(=O)Nc1ccc(OC)c(Nc2cc(-c3[nH]c(CC)nc3-c3cccc(NC(=O)c4cccc5c4NC(=O)c4ccccc4N5)c3)ccn2)c1 [Compound 4, N-(3-(5-(2-((5-Acrylamido-2-methoxyphenyl)amino)pyridin-4-yl)-2-ethyl-1H-imidazol-4-yl)phenyl)-11-oxo-10,11-dihydro-5H-dibenzo[b,e][1,4]diazepine-9-carboxamide]
- remaining binding at 1 µM [1]: 67%
- remaining binding at 1 µM [2]: 90%
- remaining binding at 1 µM [3]: 90%
- remaining binding at 1 µM [4]: 100%
- remaining binding at 1 µM [5]: 16%
- remaining binding at 1 µM [6]: 90%
- remaining binding at 1 µM [7]: 100%
- remaining binding at 1 µM [8]: 100%
- remaining binding at 1 µM [9]: 45%
- remaining binding at 1 µM [10]: 87%
- remaining binding at 1 µM [11]: 85%
- remaining binding at 1 µM [12]: 100%
- remaining binding at 1 µM [13]: 100%
- remaining binding at 1 µM [14]: 83%
- remaining binding at 1 µM [15]: 10%
- remaining binding at 1 µM [16]: 14%
- remaining binding at 1 µM [17]: 100%
- remaining binding at 1 µM [18]: 84%
- remaining binding at 1 µM [19]: 98%
- remaining binding at 1 µM [20]: 48%
- remaining binding at 1 µM [21]: 100%
- remaining binding at 1 µM [22]: 100%
- remaining binding at 1 µM [23]: 66%
- remaining binding at 1 µM [24]: 97%
- remaining binding at 1 µM [25]: 87%
- remaining binding at 1 µM [26]: 100%
- remaining binding at 1 µM [27]: 100%
- remaining binding at 1 µM [28]: 96%
- remaining binding at 1 µM [29]: 75%
- remaining binding at 1 µM [30]: 80%
- remaining binding at 1 µM [31]: 90%
- remaining binding at 1 µM [32]: 100%
- remaining binding at 1 µM [33]: 63%
- remaining binding at 1 µM [34]: 87%
- remaining binding at 1 µM [35]: 3.8%
- remaining binding at 1 µM [36]: 77%
- remaining binding at 1 µM [37]: 85%
